The record followed here is patent EP1200406B1, “CYCLIC AMIDES AND IMIDES HAVING SELECTIVE ANTAGONIST ACTIVITY AT ALPHA-1D ADRENERGIC RECEPTOR” (RECORDATI INDUSTRIA CHIMICA E FARMACEUTICA S.p.a., priority 1999, dated 2001).

The structures appear in SMILES notation. pKi: −log10 of the molar value. Where two headings read alike, the source gives them in different places. A value given as a limit tells only on which side of the number the result lay.

The target in test [1] is T1, human recombinant α1b adrenoceptor (Homo sapiens, UniProt P35368).
T1 construct: expressed in transfected cells; host or cells: CHO cells (membranes)
T1 sequence (P35368 1-520): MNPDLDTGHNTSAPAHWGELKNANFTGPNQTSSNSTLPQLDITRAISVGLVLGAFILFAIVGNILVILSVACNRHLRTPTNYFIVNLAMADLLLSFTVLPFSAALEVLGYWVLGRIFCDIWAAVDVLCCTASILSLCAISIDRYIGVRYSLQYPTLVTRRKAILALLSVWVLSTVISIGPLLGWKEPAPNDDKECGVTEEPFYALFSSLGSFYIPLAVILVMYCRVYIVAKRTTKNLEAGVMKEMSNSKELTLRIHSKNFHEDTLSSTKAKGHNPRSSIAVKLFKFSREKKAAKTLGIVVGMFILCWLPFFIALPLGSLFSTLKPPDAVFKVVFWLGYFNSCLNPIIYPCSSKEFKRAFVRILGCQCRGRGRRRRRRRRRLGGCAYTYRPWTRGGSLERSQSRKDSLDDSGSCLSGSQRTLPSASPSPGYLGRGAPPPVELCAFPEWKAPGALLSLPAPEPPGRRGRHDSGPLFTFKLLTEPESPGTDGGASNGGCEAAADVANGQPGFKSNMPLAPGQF
Briefly: Radioligand binding ([3H]prazosin) on membranes of CHO cells expressing cloned α1b adrenoceptor. To be noted: human cloned receptor, CHO cell membranes, 0.2 nM [3H]prazosin; read-out: Affinity (Ki) α1b. The protocol:
(§1) The determination of affinity for cloned subtypes of human α1 adrenergic receptors was performed in membranes from CHO cells (chinese hamster ovary cells) transfected by electroporation with DNA expressing the genes encoding each α1-adrenoceptor subtype, namely α1a, α1b and α1d.. Cloning and stable expression of the human α1-adrenoceptor gene were performed as previously described (Testa et al., Pharmacol. Comm. 6, 79-86 (1995)). CHO cell membranes were incubated in […] Tris pH 7.4 with 0.2 nM [^3H]prazosin, in a final volume of 1.02 ml for 30 minutes at 25°C, in the absence or presence of competing drugs (1 pM-10 µM). Non-specific binding was determined in the presence of 10 µM phentolamine. Incubation was stopped by addition of ice-cold Tris buffer and rapid filtration through 0.2% polyethyleneimine pretreated Schleicher & Schuell GF52 filters. Genomic clone G-21 coding for the human 5-HT1A-serotoninergic receptor was stably transfected in a human cell line (HeLa) (Fargin et al., J. Biol. Chem. 284, 14848-14852 (1989)). The HeLa cells were grown as monolayers in Dulbecco's modified Eagle's medium (DMEM), supplemented with 10% foetal calf serum and gentamicin (100 µg/ml), 5% CO2, at 37°C. The cells were detached from the growth flask at 95% confluence by a cell scraper and were lysed in ice-cold 5 mM Tris and 5-mM EDTA buffer (pH 7.4). The homogenates were centrifuged at 40000 x g x 20 minutes and the membranes were re-suspended in a small volume of ice-cold 5 mM Tris and 5-mM EDTA buffer (pH 7.4) and immediately frozen and stored at -70°C until use. On the experiment day, the cell membranes were re-suspended in a buffer containing 50 mM Tris (pH 7.4), 2.5 mM MgCl2, 10 µM pargyline (Fargin et al., Nature 335, 358-360 (1988)). […] The incubation was stopped by addition of ice-cold Tris buffer and rapid filtration through 0.2%-polyethyleneimine-pretreated Schleicher & Schuell filters. The inhibition of specific binding of the radioligands by the drugs was analysed to estimate the IC50 value by using the non-linear curve-fitting programme Allfit (De Lean et al., Am. J. Physiol. 235, E97-E102 (1978)). The IC50 value was converted to an affinity constant (Ki) by the equation of Cheng & Prusoff (Biochem. Pharmacol. 22, 3099-3108 (1973)). Data were expressed as mean of Ki.

Test [2] has as its target T2, human 5-HT1A-serotoninergic receptor (Homo sapiens, UniProt P08908).
T2 construct: expressed in transfected cells; host or cells: HeLa cells (membranes)
T2 sequence (P08908 1-422): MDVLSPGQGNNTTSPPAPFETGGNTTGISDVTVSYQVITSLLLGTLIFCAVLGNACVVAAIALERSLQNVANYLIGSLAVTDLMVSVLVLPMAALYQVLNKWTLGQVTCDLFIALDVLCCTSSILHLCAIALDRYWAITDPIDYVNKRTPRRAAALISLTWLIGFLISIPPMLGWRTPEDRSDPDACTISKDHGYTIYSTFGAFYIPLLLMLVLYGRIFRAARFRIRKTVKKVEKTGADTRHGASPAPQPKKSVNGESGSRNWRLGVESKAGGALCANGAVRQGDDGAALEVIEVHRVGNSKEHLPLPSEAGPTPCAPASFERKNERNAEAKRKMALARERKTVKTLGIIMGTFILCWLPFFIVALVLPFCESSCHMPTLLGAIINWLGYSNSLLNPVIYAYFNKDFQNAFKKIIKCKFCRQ
Briefly: Radioligand binding ([3H]8-OH-DPAT) on membranes of HeLa cells expressing cloned 5-HT1A receptor. To be noted: read-out: Affinity (Ki) 5-HT1A. The protocol:
as §1

Setting [3] is: human cloned receptor, HeLa cell membranes, 1.2 nM [3H]8-OH-DPAT.

Usually pKi stands for the Ki on a negative log10 scale, so that one unit is a factor of ten. Turning to `Cc1ccc(F)c(N2CCN(CCN3C(=O)CC4(CCCC4)CC3=O)CC2)c1` [Example 4, 8-{2-[4-(2-Fluoro-5-methylphenyl)-1-piperazinyl]-ethyl}-8-azaspiro[4.5]decane-7,9-dione], the pKi is 6.92 in test [1] and 7.28 in test [2] (setting [3]).
Consider `O=C1CC2(CCCC2)C(=O)N1CCN1CCN(c2cc(Cl)ccc2Cl)CC1` [Example 14, 2-{2-[4-(2,5-Dichlorophenyl)-1-piperazinyl]-ethyl}-2-azaspiro[4.4]nonane-1,3-dione], for which the pKi in test [1] was 7.08; in test [2], below 6.00.
As to `O=C1CC2(CCCCC2)CC(=O)N1CCN1CCN(c2cc(Cl)ccc2Cl)CC1` [Example 11, 3-{2-[4-(2,5-Dichlorophenyl)-1-piperazinyl]-ethyl}-3-azaspiro[5.5]undecane-2,4-dione], the pKi in test [1] was 7.28; in test [2] (setting [3]) it was 6.89.
On the same counts, the results for `O=C1CC2(CCCC2)CC(=O)N1CCN1CCN(c2cc(Cl)ccc2Cl)CC1` [Example 1, 8-{2-[4-(2,5-Dichlorophenyl)-1-piperazinyl]-ethyl}-8-azaspiro[4.5]decane-7,9-dione] are 8.00 and 7.44.
Regarding `O=C1CC2(CCCC2)CC(=O)N1CCN1CCN(c2cc(I)ccc2Cl)CC1` [Example 10, 8-{2-[4-(2-Chloro-5-iodophenyl)-1-piperazinyl]-ethyl}-8-azaspiro[4.5]decane-7,9-dione], the values for the pKi in test [1] and in test [2] (setting [3]) were 6.35 and 6.09, respectively.
Consider `O=C1CC2(C=CN1CCN1CCN(c3cc(Cl)ccc3Cl)CC1)CCCC2` [Example 20, 8-{2-[4-(2,5-Dichlorophenyl)-1-piperazinyl]-ethyl}-8-azaspiro[4.5]dec-9,10-en-7-one], for which the values for the pKi in test [1] and in test [2] (setting [3]) were 7.80 and 7.04, respectively.
On the same counts, the results for `O=C1CC2(CCCC2)CC(=O)N1CCN1CCN(c2cc(F)ccc2Cl)CC1` [Example 9, 8-{2-[4-(2-Chloro-5-fluorophenyl)-1-piperazinyl]-ethyl}-8-azaspiro[4.5]decane-7,9-dione] are 8.00 and 7.92.
On the same counts, the results for `N#Cc1ccc(Cl)cc1N1CCN(CCN2C(=O)CC3(CCCC3)CC2=O)CC1` [Example 8, 8-{2-[4-(5-Chloro-2-cyanophenyl)-1-piperazinyl]-ethyl}-8-azaspiro[4.5]decane-7,9-dione] are 7.77 and 7.53.
Take `O=C1CC2(CCC2)CC(=O)N1CCN1CCN(c2cc(Cl)ccc2Cl)CC1` [Example 15, 7-{2-[4-(2,5-Dichlorophenyl)-1-piperazinyl]-ethyl}-7-azaspiro[3.5]nonane-6,8-dione]: the pKi in test [1] was 7.10; in test [2], below 6.00.
For `O=C1CC2(CCCC2)CC(=O)N1CCN1CCN(c2cc(Br)ccc2Br)CC1` [Example 7, 8-{2-[4-(2,5-Dibromophenyl)-1-piperazinyl]-ethyl}-8-azaspiro[4.5]decane-7,9-dione], the figures for the negative-log Ki (pKi) in test [1] and in test [2] (setting [3]) were 7.32 and 7.21, respectively.
With `O=C1CC2(CCCC2)CC(=O)N1CCN1CCN(c2cc(C(F)(F)F)ccc2F)CC1` [Example 6, 8-{2-[4-(2-Fluoro-5-trifluoromethylphenyl)-1-piperazinyl]-ethyl}-8-azaspiro[4.5]decane-7,9-dione], the pKi in test [1] is below 6.00; in test [2] (setting [3]), 6.80.
On the same counts, the results for `O=C1CC2(CCCC2)CC(=O)N1CCN1CCC(c2cc(Cl)ccc2Cl)CC1` [Example 17, 8-{2-[4-(2,5-Dichlorophenyl)-1-piperidinyl]-ethyl}-8-azaspiro[4.5]decane-7,9-dione] are 7.43 and 6.61.
The corresponding values for `Cc1ccc(C)c(N2CCN(CCN3C(=O)CC4(CCCC4)CC3=O)CC2)c1` [Example 5, 8-{2-[4-(2,5-Dimethylphenyl)-1-piperazinyl]-ethyl}-8-azaspiro[4.5]decane-7,9-dione] are 6.77 and 6.56.
On the same counts, the results for `CN(CCN1C(=O)CC2(CCCC2)CC1=O)CCN(C)c1cc(Cl)ccc1Cl` [Example 18, N-(2,5-Dichlorophenyl)-N'-{2-(7,9-dioxo-8-azaspiro[4.5]decane-8-yl)-ethyl}-N,N'-dimethyl-1,2-diaminoethane] are 6.04 and 6.36.
Turning to `O=C1CCCC(=O)N1CCN1CCN(c2cc(Cl)ccc2Cl)CC1` [Example 2, 1-{2-[4-(2,5-Dichlorophenyl)-1-piperazinyl]-ethyl}-piperidinyl-2,6-dione], the negative-log Ki (pKi) in test [1] was 7.27; in test [2] (setting [3]), 6.59.
`CCC1(C)CC(=O)N(CCN2CCN(c3cc(Cl)ccc3Cl)CC2)C(=O)C1` [Example 13, 1-{2-[4-(2,5-Dichlorophenyl)-1-piperazinyl]-ethyl}-4-ethyl-4-methylpiperidinyl-2,6-dione]: the pKi was 7.36 in test [1] and 6.98 in test [2] (setting [3]).
The corresponding values for `CC(CN1CCN(c2cc(Cl)ccc2Cl)CC1)N1C(=O)CC2(CCCC2)CC1=O` (stereo not drawn) [Example 16, 8-{2-[4-(2,5-Dichlorophenyl)-1-piperazinyl]-1-methylethyl}-8-azaspiro[4.5]decane-7,9-dione] are 7.88 and 6.68.
For `O=C1CC2(CCCC2)CCN1CCN1CCN(c2cc(F)c(F)cc2F)CC1` [Example 24, 8-{2-[4-(2,4,5-Trifluorophenyl)-1-piperazinyl]-ethyl}-8-azaspiro[4.5]decane-7-one], the pKi was 7.64 in test [1] and 6.67 in test [2].
